Data published in ChEMBL document CHEMBL3638434, “1H-pyrrolo[2,3 b]-pyridine derivatives” (2014).

Target: T1, 3-phosphoinositide-dependent protein kinase 1 (Homo sapiens, UniProt O15530)
T1 sequence (O15530 whole entry): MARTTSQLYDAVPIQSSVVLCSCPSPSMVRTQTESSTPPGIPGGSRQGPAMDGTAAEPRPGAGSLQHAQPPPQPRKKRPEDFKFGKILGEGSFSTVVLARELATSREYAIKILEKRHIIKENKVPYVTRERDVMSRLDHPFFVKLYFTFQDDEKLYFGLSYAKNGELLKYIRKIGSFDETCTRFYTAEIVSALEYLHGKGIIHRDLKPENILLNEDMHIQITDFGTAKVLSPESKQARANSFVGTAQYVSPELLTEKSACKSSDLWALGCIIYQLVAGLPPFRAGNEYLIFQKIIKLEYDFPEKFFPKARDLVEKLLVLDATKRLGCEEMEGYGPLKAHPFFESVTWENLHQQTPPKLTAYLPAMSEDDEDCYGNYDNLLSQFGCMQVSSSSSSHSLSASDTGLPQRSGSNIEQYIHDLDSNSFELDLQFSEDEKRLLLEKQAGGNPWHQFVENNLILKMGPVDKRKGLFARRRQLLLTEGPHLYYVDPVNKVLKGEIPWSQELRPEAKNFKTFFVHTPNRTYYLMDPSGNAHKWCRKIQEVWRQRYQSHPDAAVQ
Experiment: Inhibition Assay: The compound inhibits the target protein in the enzymatic PDK1 inhibition assay.

IC50 [nM] | Compound
190 | CN(c1cccc(F)c1)c1cc(-c2c[nH]c3ncc(-c4cnn(C)c4)cc23)ncn1
7.9 | Cn1cc(-c2cnc3[nH]cc(-c4cc(N(CCC#N)c5ccccc5)nc(N)n4)c3c2)cn1
